Assay results from US9545400B2, “Analgesic composition including opioid analgesic and P7C3” (CHONNAM NATIONAL UNIVERSITY HOSPITAL, priority 2014, dated 2017).

Assays:
[1] = test system: Sprague-Dawley rats; test: Formalin-induced pain test (flinching) after intrathecal administration; format: in vivo, rat; details: for ED50 (dose which decreases the formalin response of the control by 50%), Phase 1 / ED50 (dose which decreases the formalin response of the control by 50%), Phase 2: drug alone, intrathecal 10 min before formalin injection, rat; for ED50 (dose which decreases the formalin response of the control by 50%), Phase 1: Phase 1 (0 to 9 min); for ED50 (dose which decreases the formalin response of the control by 50%), Phase 2: Phase 2 (10 to 60 min); for Ratio of ED50 in Phase 1 to ED50 in Phase 2: formalin experiment; for Ratio of ED50 in Phase 1 to ED50 in Phase 2 / Flinching reactions, dose-response (percentage of control) / Number of flinches over time at the highest dose: intrathecal; for Flinching reactions, dose-response (percentage of control): Phase 1 and Phase 2, FIGS. 2A and 2B; for Number of flinches over time at the highest dose: FIGS. 1A and 1B
Description: (§1) After permission for all the procedures in the experimental protocol was obtained by The Institutional Animal Care and Use Committee of Chonnam National University, experiments were performed. Adult male Sprague-Dawley rats (250 to 300 g) were used as the experimental subject, four rats per group were housed and kept in a well-controlled vivarium, maintained at 22° C. for 12 hours, with an alternating light/dark cycle and were given food and water ad libitum. Rats were under sevoflurance anesthesia in order to be implanted with an intrathecal catheter, and placed in a stereotaxic apparatus A polyethylene catheter lower end portion was intrathecally inserted so as to be positioned within the lumbar extension portion through an incision in the cisternal membrane. Then, the catheter upper end portion was secured at the skull. After the catheter implantation, rats were again housed in individual cages. After the intrathecal catheter implantation, rats showing movement disorder were excluded in the experiment, and killed by administering an overdose of sevoflurane. Rats showing normal responses were again housed in individual cages in the vivarium, and given a recovery time of 5 days.
A formalin experiment was used as a pain evoking experimental tool. 50 μL of a 5% formalin solution was injected subcutaneously into the subcutaneous tissue of a hind paw of the rat. […] The number of flinches was counted for 1 min periods at 1 and 5 min and at 5 min intervals from 10 to 60 min after the injection. […] Therefore, the phase from 0 to 9 minutes after the injection of formalin was defined as Phase 1, and the phase from 10 to 60 minutes was defined as Phase 2. After the behavior study, rats were administered an overdose of sevoflurane, and then killed.
The effect of the experimental drug for the formalin injection was tested for 5 days after the intrathecal catheter implantation. After acclimatization for 15 to 20 min in a restraint cylinder (10×10×30 cm), the rats were allocated to receive one of the experimental drugs, and tested only once. The same volume of the vehicle (saline, 0.1 N NaOH or DMSO) was administered to a control. The total number of rats used in the nociceptive behavioral study was 139 with 6 to 8 rats per group. The investigators were blind as to the administration amount and type of experimental drug used in each rat.
Saline, 10, 30, and 100 μg of P7C3 (Tocris Cookson Ltd., Bristol, UK), and 1, 3, 10, and 30 μg of morphine sulfate (Sigma-Aldrich, St. Louis, Mo., USA) were intrathecally administered 10 minutes before formalin injection, and analgesic effects (flinching number analysis) were investigated according to the aforementioned pain experiment. The drug was intrathecally administered by using a manually gear operated syringe pump. All the drugs were administered in an amount of 10 μl, and an additional 10 μl of standard saline was administered in order to wash out the catheter.
The dose (ED50), which decreases the formalin response of the control for P7C3 and morphine by 50%, was determined at Phase 1 and the Phase 2, respectively.
And then, ED50 of the mixed drug was obtained. The experiment was performed individually in Phase 1 and Phase 2.
Data obtained in Examples 1 and 2 were expressed as means±SEM. The time response data are presented as the number of flinches. The dose-response data are presented as a percentage of the control. Percentage of the control=(total number of flinches in drug administration group in Phase 1[2]/number of flinches of control in Phase 1[2])×100

[2] = test system: Sprague-Dawley rats; test: Evaluation of response of intrathecal administration of P7C3 (motor function and pinna/corneal reflexes); format: in vivo, rat; details: highest dose (100 μg) intrathecal, 5 rats
Description: as §1, with “After the intrathecal catheter implantation, rats showing movement disorder were excluded in the experiment, and killed by administering an overdose of sevoflurane. Rats showing normal responses were again housed in individual cages in the vivarium, and given a recovery time of 5 days.” left out
In order to detect undesirable behaviors induced by P7C3, the highest dose (100 μg) was intrathecally administered to 5 rats of each individual group. Motor function was assessed by the placing-stepping reflex and the righting reflex. […] The latter was evaluated by placing the rat horizontally with the rat's back on the table. […] The central nervous system was evaluated through pinna and corneal reflexes. […]

Structure (SMILES): CN1CC[C@]23c4c5ccc(O)c4O[C@H]2[C@@H](O)C=C[C@H]3[C@H]1C5 [Morphine, (5α,6α)-7,8-didehydro-4,5-epoxy-17-methylmorphinan-3,6-diol, reference compound]
- ED50 (dose which decreases the formalin response of the control by 50%), Phase 1 [1]: 8.8 µg
- ED50 (dose which decreases the formalin response of the control by 50%), Phase 2 [1]: 3.9 µg
- Ratio of ED50 in Phase 1 to ED50 in Phase 2 [1]: two times larger
- Flinching reactions, dose-response (percentage of control) [1]: suppressed flinching reactions dose-dependently
- Number of flinches over time at the highest dose [1]: exhibited potential analgesic effects throughout the entire observation period

Structure (SMILES): OC(CNc1ccccc1)Cn1c2ccc(Br)cc2c2cc(Br)ccc21 (centres unmarked) [P7C3, 1-(3,6-dibromo-9H-carbazol-9-yl)-3-(phenylamino)propan-2-ol]
- ED50 (dose which decreases the formalin response of the control by 50%), Phase 1 [1]: 31.8 µg
- ED50 (dose which decreases the formalin response of the control by 50%), Phase 2 [1]: 31 µg
- Ratio of ED50 in Phase 1 to ED50 in Phase 2 [1]: similar
- Flinching reactions, dose-response (percentage of control) [1]: suppressed flinching reactions dose-dependently
- Number of flinches over time at the highest dose [1]: exhibited potential analgesic effects throughout the entire observation period
- Normality of behavior: placing-stepping, righting, pinna and corneal reflexes [2]: all normal (present)
